Drawing on patent US20260001893A1, “SMALL MOLECULE MODULATORS OF STAT6” (Gilead Sciences, Inc., priority 2024, published 2026), this text covers Emax and EC50 for 17 compounds.

The first assay deals with Eotaxin-3 (CCL26) release in human whole blood stimulated with IL-4. As to the kind of experiment: Human whole blood eotaxin-3 assay (IL-4 stimulated eotaxin-3 release). The settings on record: Homo sapiens, 48 h, human whole blood stimulated with recombinant human IL-4, 48 h; given for test compounds with <80% Emax; geometric mean. Format: cell-based. Here is the method:
Human Whole Blood Eotaxin-3 Assay
This was a human whole blood assay using recombinant human Interleukin 4 to stimulate the blood and measuring the ability of the test compounds to inhibit eotaxin-3 release. The biological activities of the test compounds have been tested in human whole blood stimulated with IL-4 measuring Eotaxin-3 release. The test compounds were added to 384 well clear flat-bottom plate in a 4-fold serial dilution in triplicates using a liquid handler. Human whole blood stabilized in lithium-heparin tubes was added in a volume of 65 μL per well, resulting in a final DMSO concentration of 0.5%. The plate is incubated for 2 h at 37° C. under 5% CO2/95% air. Subsequently, 5 μL of recombinant human IL-4 (R&D Systems, cat #204-ILB) was added to the wells to a final concentration of […]. The plate was incubated for 48 h at 37° C. under 5% CO2/95% air. The plate was spun down for 10 minutes at 500×g and 20 μL supernatant was harvested and transferred to a 384 well v-bottom plate using a liquid handler and stored at −20° C. until further analysis. 10 μL supernatant was used to measure the level of Eotaxin-3 (CCL26) using Human Eotaxin-3 MSD kit from Mesocsale (Cat #K251UEK-4). The assay was performed according to the manufacture instructions.
The data from the human whole blood eotaxin-3 assay is shown below for Examples 1ab3, 1ab6, 1d23, and 1d4 (where the effect in % is plotted against the test concentration in M on a log-scale).
As for `[2H]C([2H])([2H])N(C(=O)c1ccc(C2CCN([C@@H](C)c3cc4c(-n5ncc(N)cc5=O)ccnc4n3C)CC2)cc1)C([2H])([2H])[2H]` [Example 1af62, (S)-4-(1-(1-(4-(4-amino-6-oxopyridazin-1 (6H)-yl)-1-methyl-1H-pyrrolo[2,3-b]pyridin-2-yl)ethyl)piperidin-4-yl)-N,N-bis(methyl-d3)benzamide], the maximal response (Emax) was 20 to 30%.

Regarding `[2H]C([2H])([2H])N(C(=O)c1ccc(C2=CCN(Cc3cc4c(-n5ccc6c(c5=O)CCN6)ccnc4n3C)CC2)cc1)C([2H])([2H])[2H]` [Example 1af63, N,N-Bis(methyl-d3)-4-(1-((1-methyl-4-(4-oxo-1,2,3,4-tetrahydro-5H-pyrrolo[3,2-c]pyridin-5-yl)-1H-pyrrolo[2,3-b]pyridin-2-yl)methyl)-1,2,3,6-tetrahydropyridin-4-yl)benzamide], the Emax is 30 to 40%.

Consider `[2H]C([2H])([2H])N(C(=O)c1ccc(C2CCN(Cc3cc4c(-n5ccc(N)c(C)c5=O)ccnc4n3C)CC2)cc1)C([2H])([2H])[2H]` [Example 1d22, 4-[1-[[4-(4-Amino-3-methyl-2-oxo-1-pyridyl)-1-methyl-pyrrolo[2,3-b]pyridin-2-yl]methyl]-4-piperidyl]-N,N-bis(trideuteriomethyl)benzamide], for which the Emax lay within 70 to 80%.

Take `[2H]C([2H])([2H])N(C(=O)c1ccc(C2CCN(Cc3cc4c(-n5ccc6c(c5=O)CCN6)ccnc4n3C)CC2)cc1)C([2H])([2H])[2H]` [Example 1d24, 4-[1-[[1-Methyl-4-(4-oxo-2,3-dihydro-1H-pyrrolo[3,2-c]pyridin-5-yl)pyrrolo[2,3-b]pyridin-2-yl]methyl]-4-piperidyl]-N,N-bis(trideuteriomethyl)benzamide]: the Emax was in the range of 70 to 80%.

Staying with this assay, now noted: Homo sapiens, 48 h, human whole blood stimulated with recombinant human IL-4, 48 h; inhibition of eotaxin-3 release; given for test compounds with >80% Emax; geometric mean.
Consider `CNc1ccn(-c2ccnc3c2cc(CN2CCC(c4ccc(C(=O)N(C)C)cc4)C[C@H]2C)n3C)c(=O)c1` (stereo in doubt) [Example 1d41, N,N-dimethyl-4-[(2R,4S)-2-methyl-1-[[1-methyl-4-[4-(methylamino)-2-oxo-1-pyridyl]pyrrolo[2,3-b]pyridin-2-yl]methyl]-4-piperidyl]benzamide], for which the EC50 is 0.279 µM.

For `Cc1cc(C(=O)N(C)C)ccc1C1=CCN(Cc2cc3c(-n4ncc(N)cc4=O)ccnc3n2C)CC1` [Example 1ab5, 4-(1-((4-(4-Amino-6-oxopyridazin-1 (6H)-yl)-1-methyl-1H-pyrrolo[2,3-b]pyridin-2-yl)methyl)-1,2,3,6-tetrahydropyridin-4-yl)-N,N,3-trimethylbenzamide], the EC50 was 1.53 µM.

On to `[2H]C([2H])([2H])N(C(=O)c1cc(C)c(C2=CCN(Cc3cc4c(-n5ccc(N)cc5=O)ccnc4n3C)CC2)c(F)c1)C([2H])([2H])[2H]` [Example 1ad5, 4-[1-[[4-(4-Amino-2-oxo-1-pyridyl)-1-methyl-pyrrolo[2,3-b]pyridin-2-yl]methyl]-3,6-dihydro-2H-pyridin-4-yl]-3-fluoro-5-methyl-N,N-bis(trideuteriomethyl)-benzamide], for which the EC50 amounted to 0.00521 µM.

Consider `Cc1cc(C(=O)N(C)C)cc(F)c1C1=CCN(Cc2cc3c(-n4ccc(N)cc4=O)ccnc3n2C)CC1` [Example 1ad6, 4-[1-[[4-(4-Amino-2-oxo-1-pyridyl)-1-methyl-pyrrolo[2,3-b]pyridin-2-yl]methyl]-3,6-dihydro-2H-pyridin-4-yl]-3-fluoro-N,N,5-trimethyl-benzamide], for which the concentration giving a half-maximal response (EC50) stood at 0.00609 µM.

Regarding `[2H]C([2H])([2H])N(C(=O)c1cc(C)c(C2=CCN(Cc3cc4c(-n5ccc6c(c5=O)CCN6)ccnc4n3C)CC2)c(F)c1)C([2H])([2H])[2H]` [Example 1ad7, 3-Fluoro-5-methyl-N,N-bis(methyl-d3)-4-(1-((1-methyl-4-(4-oxo-1,2,3,4-tetrahydro-5H-pyrrolo[3,2-c]pyridin-5-yl)-1H-pyrrolo[2,3-b]pyridin-2-yl)methyl)-1,2,3,6-tetrahydropyridin-4-yl)benzamide], the EC50 was 0.0068 µM.

Turning to `[2H]C([2H])([2H])N(C(=O)c1cc(C)c(C2=CCN(Cc3cc4c(-n5ccc(NC)cc5=O)ccnc4n3C)CC2)c(F)c1)C([2H])([2H])[2H]` [Example 1ad8, 3-Fluoro-5-methyl-N,N-bis(methyl-d3)-4-(1-((1-methyl-4-(4-(methylamino)-2-oxopyridin-1 (2H)-yl)-1H-pyrrolo[2,3-b]pyridin-2-yl)methyl)-1,2,3,6-tetrahydropyridin-4-yl)benzamide], the EC50 was 0.0089 µM.

With `Cc1cc(C(=O)N(C)C)cc(F)c1C1=CCN(Cc2cc3c(-n4cc(F)c(N)cc4=O)ccnc3n2C)CC1` [Example 1ad10, 4-(1-((4-(4-amino-5-fluoro-2-oxopyridin-1 (2H)-yl)-1-methyl-1H-pyrrolo[2,3-b]pyridin-2-yl)methyl)-1,2,3,6-tetrahydropyridin-4-yl)-3-fluoro-N,N,5-trimethylbenzamide], the half-maximal effective concentration (EC50) is 0.0122 µM.

On to `[2H]C([2H])([2H])N(C(=O)c1cc(C)c(C2=CCN(Cc3cc4c(-n5cc(F)c(N)cc5=O)ccnc4n3C)CC2)c(F)c1)C([2H])([2H])[2H]` [Example 1ad11, 4-(1-((4-(4-amino-5-fluoro-2-oxopyridin-1 (2H)-yl)-1-methyl-1H-pyrrolo[2,3-b]pyridin-2-yl)methyl)-1,2,3,6-tetrahydropyridin-4-yl)-3-fluoro-5-methyl-N,N-bis(methyl-d3)benzamide], for which the EC50 turned out to be 0.0113 µM.

Regarding `[2H]C([2H])([2H])N(C(=O)c1ccc(C2CCN([C@@H](C)c3cc4c(-n5ccc(N)cc5=O)ccnc4n3C)CC2)cc1)C([2H])([2H])[2H]` [Example 1af65, (S)-4-(1-(1-(4-(4-amino-2-oxopyridin-1 (2H)-yl)-1-methyl-1H-pyrrolo[2,3-b]pyridin-2-yl)ethyl)piperidin-4-yl)-N,N-bis(methyl-d3)benzamide], the concentration for a half-maximal effect (EC50) was found to be 0.0196 µM.

On to `CNc1ccn(-c2ccnc3c2cc([C@H](C)N2CC=C(c4c(C)cc(C(=O)N(C)C)cc4F)CC2)n3C)c(=O)c1` [Example 1af82, (S)-3-fluoro-N,N,5-trimethyl-4-(1-(1-(1-methyl-4-(4-(methylamino)-2-oxopyridin-1 (2H)-yl)-1H-pyrrolo[2,3-b]pyridin-2-yl)ethyl)-1,2,3,6-tetrahydropyridin-4-yl)benzamide], for which the EC50 worked out at 0.00261 µM.

With `[2H]C([2H])([2H])N(C(=O)c1cc(C)c(C2=CCN([C@@H](C)c3cc4c(-n5ccc(NC)cc5=O)ccnc4n3C)CC2)c(F)c1)C([2H])([2H])[2H]` [Example 1af83, (S)-3-fluoro-5-methyl-N,N-bis(methyl-d3)-4-(1-(1-(1-methyl-4-(4-(methylamino)-2-oxopyridin-1 (2H)-yl)-1H-pyrrolo[2,3-b]pyridin-2-yl)ethyl)-1,2,3,6-tetrahydropyridin-4-yl)benzamide], the 50% effective concentration (EC50) is 0.00267 µM.

Consider `CNc1ccn(-c2ccnc3c2cc(CN2CCC(c4ccc(C(=O)N(C)C)cc4Cl)CC2)n3C)c(=O)c1` [Example 1d37, 3-Chloro-N,N-dimethyl-4-[1-[[1-methyl-4-[4-(methylamino)-2-oxo-1-pyridyl]pyrrolo[2,3-b]pyridin-2-yl]methyl]-4-piperidyl]benzamide], for which the concentration for a half-maximal effect (EC50) worked out at 0.148 µM.

The assay is the same for the next values; noted with them: human whole blood stimulated with recombinant human IL-4, 48 h; inhibition of eotaxin-3 release; given for test compounds with >80% Emax; geometric mean.
Take `CNc1ccn(-c2ccnc3c2cc([C@H](C)N2CC[C@@H](c4c(C)cc(C(=O)N(C)C)cc4F)C(F)(F)C2)n3C)c(=O)c1` (stereo in doubt) [Example 1m142, 4-((S)-3,3-difluoro-1-((S)-1-(1-methyl-4-(4-(methylamino)-2-oxopyridin-1 (2H)-yl)-1H-pyrrolo[2,3-b]pyridin-2-yl)ethyl)piperidin-4-yl)-3-fluoro-N,N,5-trimethylbenzamide]: the concentration giving a half-maximal response (EC50) was found to be 0.0136 µM.

In general, Emax refers to the size of the effect at its maximum, as opposed to the concentration needed. As usually defined, the EC50 is the concentration needed to bring the measured effect to its halfway point.
